Molecular target: T1, zinc finger protein-like 1 (ZFPL1) (Homo sapiens, UniProt O95159)
T1 sequence (O95159 1-310): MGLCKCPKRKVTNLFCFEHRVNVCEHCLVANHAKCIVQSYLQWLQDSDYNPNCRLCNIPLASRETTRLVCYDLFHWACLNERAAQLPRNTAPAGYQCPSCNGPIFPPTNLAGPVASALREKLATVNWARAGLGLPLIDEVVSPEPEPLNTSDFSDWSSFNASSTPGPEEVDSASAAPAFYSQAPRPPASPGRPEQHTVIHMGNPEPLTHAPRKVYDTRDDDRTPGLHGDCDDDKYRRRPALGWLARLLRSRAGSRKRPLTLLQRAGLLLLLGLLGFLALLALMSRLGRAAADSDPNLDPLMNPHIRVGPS
Test: microscale thermophoresis (MST) with fluorescently labelled ZFPL1
Format: binding

O=C(/C=C/c1ccc(O)c2c1[C@H](C(=O)O[C@H](Cc1ccc(O)c(O)c1)C(=O)O)[C@@H](c1ccc(O)c(O)c1)O2)O[C@H](Cc1ccc(O)c(O)c1)C(=O)O [Salvianolic acid B]
Kd: 8.52 µM

Source: paper PMC12697865, “ZFPL1 Promotes Colorectal Cancer Progression by Stabilizing ASS1 to Drive the Urea Cycle and M2 Macrophage‐Mediated Metastatic Colonization” (Advanced Science, 2025)
